“And” between values parts separate entries of the source, which are not always exact repeats. Equal entries are not always repeated. Marks after values point to notes of the source that are not given here. Square brackets hold non-standard residues; d marks the D form. Peptide text beside a SMILES is read from it. * marks the point of attachment. Dolaproine = CO[C@@H]([C@@H]1CCCN1)[C@@H](C)C(=O)O; Dil = CC[C@H](C)[C@H](NC)[C@@H](CC(=O)O)OC; X1 = C[C@@H](N*)[C@@H](O)c1ccccc1; NMeV = CN[C@H](C(=O)O)C(C)C
Key:
[1] = system: NCI-N87 (ATCC CRL-5822) human gastric carcinoma; test: Xenograft tumor model of human gastric carcinoma NCI-N87 in female nu/nu mice: tumor volume, T/C, TGI; type: in vivo, mouse; details: for Tumor Volume, individual mouse: individual animals
Protocol: (§1) In a xenograft tumor model of human gastric carcinoma, viable NCI-N87 (ATCC CRL-5822) cells were subcutaneously (SC) implanted (2.5×10^6 cells/mL with matrigel (1:1) at 0.2 mL/mouse) into the right flank of female nu/nu mice. Tumor implanted mice were divided into seven treatment groups, each group containing eight animals, and one group containing five animals, and dose administrations were initiated one day after cell implantation (denoted as Day 1).
Viable human gastric carcinoma NCI-N87 (ATCC CRL-5822) cell line was purchased and cultured in Eurofins Panlabs Taiwan, Ltd. The cells were cultured in RPMI-1640 medium containing 10% fetal bovine serum (FBS) at 37° C. in 5% CO2 incubator and implanted subcutaneously in the right flank of each mouse.
(§2) Female nude (nu/nu) mice aged 5-6 weeks obtained from BioLasco Taiwan (under Charles River Laboratories Licensee) were used. The animals were housed in individually ventilated cages (IVC, 36 Mini Isolator system). The allocation for 3 animals was 27×20×14 in cm. All animals were maintained in a hygienic environment under controlled temperature (20-24° C.) and humidity (30%-70%) with 12-hour light/dark cycle. Free access to standard lab diet [MFG (Oriental Yeast Co., Ltd., Japan)] and autoclaved tap water in bottles were granted. All aspects of this work including housing, experimentation, and animal disposal were performed in general accordance with the “Guide for the Care and Use of Laboratory Animals: Eighth Edition” (National Academies Press, Washington, D.C., 2011) in our AAALAC-accredited laboratory animal facility. In addition, the animal care and use protocol was reviewed and approved by the IACUC at Eurofins Panlabs Taiwan, Ltd.
(§3) The tumor volumes, body weights, mortality, and signs of overt toxicity were monitored and recorded twice weekly for 100 days. Tumor growth inhibition was calculated as T/C (treatment/control)×100%. A T/C value≤42% compared to that of the vehicle control group was considered significant anti-tumor activity. Two-way ANOVA followed by Bonferroni test was used to ascertain the statistically significant significance of groups compared to respective vehicle control (*p<0.05).

[2] = Body weight, mortality and signs of overt toxicity in NCI-N87 implanted female nu/nu mice; type: in vivo, mouse
Protocol: as §1, §2, §3

[3] = Day 53, 0.191 mg/kg × 4 IP once weekly
[4] = 0.191 mg/kg × 4 IP once weekly, group mean
[5] = 0.191 mg/kg × 4 IP once weekly, individual mouse

With CC[C@H](C)[C@@H]([C@@H](CC(=O)N1CCC[C@H]1[C@H](OC)[C@@H](C)C(=O)N[C@H](C)[C@@H](O)c1ccccc1)OC)N(C)C(=O)[C@@H](NC(=O)[C@@H](NC)C(C)C)C(C)C [MMAE, monomethyl auristatin E] (H-[NMeV]V[Dil][Dolaproine]-X1) the “% T/C” value [1, 3] was 47%, the “% TGI” value [1, 3] was 53% and the “Tumor Volume, Mean” value [1, 3] was 639* mm^3. The “Tumor Volume, individual animal” value ([1]; Day 53, 0.191 mg/kg × 4 IP once weekly, 0.191 mg/kg) was 88 mm^3 and 682 mm^3 and 590 mm^3 and 581 mm^3 and 816 mm^3 and died and 1094 mm^3 and 620 mm^3, the “Tumor Volume, Mean” value ([1]; Day 57, 0.191 mg/kg × 4 IP (Once weekly), group mean) was 676 mm^3 and the “Tumor Volume, individual mouse” value ([1]; Day 57, 0.191 mg/kg × 4 IP (Once weekly), 0.191 mg/kg) was 85 mm^3 and 694 mm^3 and 663 mm^3 and 627 mm^3 and 870 mm^3 and 1141 mm^3 and 650 mm^3. For the same compound, the “Tumor Volume, Mean” value ([1]; Day 60, 0.191 mg/kg × 4 IP (Once weekly), group mean) was 720 mm^3, the “Tumor Volume, individual mouse” value ([1]; Day 60, 0.191 mg/kg × 4 IP (Once weekly), 0.191 mg/kg) was 83 mm^3 and 745 mm^3 and 783 mm^3 and 664 mm^3 and 854 mm^3 and 1234 mm^3 and 676 mm^3 and the “Tumor Volume, Mean” value ([1]; Day 64, 0.191 mg/kg × 4 IP (Once weekly), group mean) was 747 mm^3. The “Tumor Volume, individual mouse” value ([1]; Day 64, 0.191 mg/kg × 4 IP (Once weekly), 0.191 mg/kg) was 82 mm^3 and 765 mm^3 and 788 mm^3 and 702 mm^3 and 920 mm^3 and 1272 mm^3 and 703 mm^3, the “Tumor Volume, Mean” value ([1]; Day 67, 0.191 mg/kg × 4 IP (Once weekly), group mean) was 818 mm^3 and the “Tumor Volume, individual mouse” value ([1]; Day 67, 0.191 mg/kg × 4 IP (Once weekly), 0.191 mg/kg) was 79 mm^3 and 883 mm^3 and 827 mm^3 and 726 mm^3 and 1070 mm^3 and 1300 mm^3 and 840 mm^3. For the same compound, the “Tumor Volume, Mean” value ([1]; Day 70, 0.191 mg/kg × 4 IP (Once weekly), group mean) was 846 mm^3, the “Tumor Volume, individual mouse” value ([1]; Day 70, 0.191 mg/kg × 4 IP (Once weekly), 0.191 mg/kg) was 76 mm^3 and 943 mm^3 and 870 mm^3 and 726 mm^3 and 1090 mm^3 and 1358 mm^3 and 859 mm^3 and the “Tumor Volume, Mean” value ([1]; Day 74, 0.191 mg/kg × 4 IP (Once weekly), group mean) was 901 mm^3. The “Tumor Volume, individual mouse” value ([1]; Day 74, 0.191 mg/kg × 4 IP (Once weekly), 0.191 mg/kg) was 74 mm^3 and 1012 mm^3 and 909 mm^3 and 856 mm^3 and 1117 mm^3 and 1422 mm^3 and 916 mm^3, the “Tumor Volume, Mean” value ([1]; Day 78, 0.191 mg/kg × 4 IP (Once weekly), group mean) was 931 mm^3 and the “Tumor Volume, individual mouse” value ([1]; Day 78, 0.191 mg/kg × 4 IP (Once weekly), 0.191 mg/kg) was 74 mm^3 and 1042 mm^3 and 955 mm^3 and 890 mm^3 and 1197 mm^3 and 1431 mm^3 and 928 mm^3. The “Tumor Volume, Mean” value ([1]; Day 81, 0.191 mg/kg × 4 IP (Once weekly), group mean) was 951 mm^3, the “Tumor Volume, individual mouse” value ([1]; Day 81, 0.191 mg/kg × 4 IP (Once weekly), 0.191 mg/kg) was 77 mm^3 and 1064 mm^3 and 961 mm^3 and 903 mm^3 and 1197 mm^3 and 1517 mm^3 and 935 mm^3 and the “Tumor Volume, Mean” value ([1]; Day 85, 0.191 mg/kg × 4 IP (Once weekly), group mean) was 1002 mm^3. The “Tumor Volume, individual mouse” value ([1]; Day 85, 0.191 mg/kg × 4 IP (Once weekly), 0.191 mg/kg) was 77 mm^3 and 1097 mm^3 and 1033 mm^3 and 933 mm^3 and 1331 mm^3 and 1558 mm^3 and 988 mm^3, the “Tumor Volume, Mean” value ([1]; Day 88, 0.191 mg/kg × 4 IP (Once weekly), group mean) was 1032 mm^3 and the “Tumor Volume, individual mouse” value ([1]; Day 88, 0.191 mg/kg × 4 IP (Once weekly), 0.191 mg/kg) was 74 mm^3 and 1104 mm^3 and 1117 mm^3 and 933 mm^3 and 1346 mm^3 and 1626 mm^3 and 1023 mm^3. The “Tumor Volume, Mean” value ([1]; Day 91, 0.191 mg/kg × 4 IP (Once weekly), group mean) was 1037 mm^3, the “Tumor Volume, individual mouse” value ([1]; Day 91, 0.191 mg/kg × 4 IP (Once weekly), 0.191 mg/kg) was 72 mm^3 and 1122 mm^3 and 1130 mm^3 and 933 mm^3 and 1346 mm^3 and 1636 mm^3 and 1023 mm^3 and the “Tumor Volume, Mean” value ([1]; Day 95, 0.191 mg/kg × 4 IP (Once weekly), group mean) was 1060 mm^3. The “Tumor Volume, individual mouse” value ([1]; Day 95, 0.191 mg/kg × 4 IP (Once weekly), 0.191 mg/kg) was 68 mm^3 and 1192 mm^3 and 1184 mm^3 and 947 mm^3 and 1354 mm^3 and 1646 mm^3 and 1029 mm^3, the “Tumor Volume, Mean” value ([1]; Day 98, 0.191 mg/kg × 4 IP (Once weekly), group mean) was 1101 mm^3 and the “Tumor Volume, individual mouse” value ([1]; Day 98, 0.191 mg/kg × 4 IP (Once weekly), 0.191 mg/kg) was 68 mm^3 and 1215 mm^3 and 1265 mm^3 and 1061 mm^3 and 1398 mm^3 and 1656 mm^3 and 1043 mm^3. The “Tumor Volume, Mean” value ([1]; Day 100, 0.191 mg/kg × 4 IP (Once weekly), group mean) was 1106 mm^3, the “Tumor Volume, individual mouse” value ([1]; Day 100, 0.191 mg/kg × 4 IP (Once weekly), 0.191 mg/kg) was 62 mm^3 and 1254 mm^3 and 1273 mm^3 and 1076 mm^3 and 1444 mm^3 and 1590 mm^3 and 1043 mm^3 and the “Mortality (animal entered as died in tumor volume table)” value ([2]; 0.191 mg/kg × 4 IP (Once weekly), mouse No. 6, Day 57-Day 100) was “died”. For the same compound, the “Body Weight Day 1, Mean” value [2, 4] was 21.9 g, the “Body Weight Day 4, Mean” value [2, 4] was 20.4 g and the “Body Weight Day 8, Mean” value [2, 4] was 22.1 g. For the same compound, the “Body Weight Day 11, Mean” value [2, 4] was 22.6 g, the “Body Weight Day 15, Mean” value [2, 4] was 23.4 g and the “Body Weight Day 18, Mean” value [2, 4] was 23.6 g. The “Body Weight Day 25, Mean” value [2, 4] was 24.0 g, the “Body Weight Day 32, Mean” value [2, 4] was 25.1 g and the “Body Weight Day 36, Mean” value [2, 4] was 25.1 g. The “Body Weight Day 50, Mean” value [2, 4] was 26.0 g, the “Body Weight Day 1” value [2, 5] was 20 g (2×) and 22 g (3×) and 24 g (2×) and 21 g and the “Body Weight Day 4” value [2, 5] was 18 g and 19 g (2×) and 22 g and 21 g and 20 g and died and 24 g. The “Body Weight Day 8” value [2, 5] was 22 g (3×) and 23 g (2×) and died and 24 g and 19 g, the “Body Weight Day 11” value [2, 5] was 22 g (2×) and 23 g (2×) and 25 g and 24 g and died and 19 g and the “Body Weight Day 15” value [2, 5] was 24 g (2×) and 23 g (3×) and 25 g and died and 22 g. The “Body Weight Day 18” value [2, 5] was 24 g (3×) and 22 g (2×) and 23 g and 26 g and died, the “Body Weight Day 22” value [2, 5] was 24 g (3×) and 22 g and 25 g (3×) and died and the “Body Weight Day 25” value [2, 5] was 24 g (4×) and 22 g and 25 g (2×) and died. The “Body Weight Day 29” value [2, 5] was 25 g (3×) and 24 g and 26 g (3×) and died, the “Body Weight Day 32” value [2, 5] was 25 g (2×) and 23 g and 24 g and 27 g and 26 g (2×) and died and the “Body Weight Day 36” value [2, 5] was 26 g (2×) and 24 g and 25 g (4×) and died. The “Body Weight Day 39” value [2, 5] was 26 g (6×) and 24 g and died, the “Body Weight Day 43” value [2, 5] was 26 g (6×) and 24 g and died and the “Body Weight Day 46” value [2, 5] was 26 g (3×) and 25 g and 27 g (3×) and died. For the same compound, the “Body Weight Day 50” value [2, 5] was 26 g (4×) and 24 g and 27 g (2×) and died, the “Body Weight Day 53” value [2, 5] was 27 g (4×) and 24 g and died and 26 g and 28 g and the “Mortality (animal recorded as died in tumor volume table)” value ([2]; animal No. 6, Day 4-Day 25, 0.191 mg/kg × 4 IP once weekly) was “died”.
